Results taken from patent publication US11337950B2, “Biologically active cannabidiol analogs” (University of Mississippi, priority 2016, dated 2022).
Entries after “also recorded” stand apart in the source; their conditions may differ. Structures can show the parent of a compound that is named as a salt. Where two headings read alike, the source gives them in different places.

How the values were obtained:
[1] = tested on: morphine place preference; assay: Morphine conditioned place preference, model of addiction (Example 25); conditions: mice
[2] = In vivo eye tissue levels 90 min after topical application in Tocrisolve emulsion (Examples 12-14); set-up: species or system New Zealand albino rabbits; conditions: for concentration at 90 min: male, New Zealand albino, 90 min post topical 50 μL Tocrisolve emulsion; for Penetration into the ocular tissues, in words (Example 14): topical Tocrisolve emulsion
Protocol: Conscious male New Zealand albino rabbits were used. The formulations were applied topically into the rabbits eyes (50 μL containing the equivalent of 250 μg CBD) in Tocrisolve® emulsion formulations as described in Example 11. The animals were sacrificed 90 min. after drug application and the eye tissues harvested for analysis.
The same procedure was followed as shown under Example 12. Additional CBD analogs were tested in this example. In this example the tissue levels of both free CBD and intact analog were determined.
Formulations: Fifty microlitres of 0.5% w/v CBD in Tocrisolve emulsion (Dose: 0.25 mg)
Animal model: Conscious male new Zealand albino rabbits, Duration of the study: 90 min.
Aqueous humor, Vitreous humor, Retina-Choroid and Iris-Ciliary bodies analysed for parent compound as well as CBD.
Formulations: Fifty microlitres of 0.5% w/v Tocrisolve emulsion formulations (Dose: 0.25 mg)
Animal model: Conscious male new Zealand albino rabbits, Duration of the study: 90 min

[3] = assay type: physicochemical; conditions: for Concentration of CBD / Concentration of Δ^9-THC: CBD incubated, 37° C.; for Stability under acidic (gastric juice) conditions, in words: pH 1.2, 37° C.; for Stability under physiologic / intestinal juice conditions, in words: pH 7.4, 37° C.
Protocol: The stability CBD and CBD analogs (CBD-Mono-VHS and CBD-Di-VHS) was evaluated under acidic and alkaline conditions to simulate exposure to gastric and intestinal fluids. The procedure is outlined as follows: • 1. Stock solution of 5 mg/mL CBD, CBD-Mono-Val-Mono HS, CBD-Di-Val-Di HS was prepared. • 2. Simulated Gastric Fluid (pH 1.2)+1% (SDS) was prepared and kept in 37° C. water bath. • 3. Physiological buffer (pH 7.4)+1% SDS was prepared and kept in 37° C. water bath. • 4. 100 μL of CBD, CBD-Mono-Val-Mono HS or CBD-Di-Val-Di-HS stock in acetonitrile (equivalent to 500 μg) was spiked into separate vials containing 5 ml of either pH 1.2 and 7.4. • 5. At each time point, 100 μL of the solution was withdrawn. • 6. 900 μL acetonitrile was added to each sample. • 7. All samples centrifuged at 4° C. and 13,000 rpm. • 8. 100 μL of the supernatant was withdrawn; to this 100 μL of supernatant, 900 μL of acetonitrile was added and placed in LC vials for analysis. Tables 9, 10 and 11, and FIGS. 7a, 7b, 18, and 19 show the results.

[4] = Solubility of CBD and its analogs in Tocrisolve emulsion; assay type: physicochemical; conditions: for Maximum solubility achieved in Tocrisolve: as the substance itself
Protocol: Formulations: 0.5% w/v CBD equivalent in Tocrisolve emulsion.
Tocrisolve composition: […] emulsion composed of a 1:4 ratio of soya oil/water that is emulsified with the block co-polymer Pluronic F68. Manufacturing process for the Tocrisolve emulsion: • Add accurately weighed amount of drug a glass vial. • Add required volume of Torcisolve blank emulsion to each vial • Vortex each vial for 5 minutes. • Sonicate each vial for 10 minutes. • Centrifuge each vial for 5 minutes at 9000 rpm at 25° C. • Collect the supernatant and analyze for CBD, CBD-Val Mono and CBD-Val-HS mono as applicable.

[5] = tested on: cisplatin-induced tactile allodynia; assay: Cisplatin-induced tactile allodynia model, electronic von Frey (Examples 23, 24); assay type: in vivo, C57BL/6 mice; conditions: mice
[6] = Bioavailability of CBD from suppository formulations containing CBD-Val-HS (Example 15); assay type: in vivo; conditions: cannulated rats, rectal suppository; PEG 1000 (7 mg) vs Wecobe W (6.125 or 4.625 mg)
Protocol: CBD-Val-HS was formulated in both lipophilic (Wecobe W base) and hydrophilic (PEG 1000 base) suppository formulations. The formulations were administered to cannulated rats (100 mg suppository per rat) and blood samples were collected, centrifuged and the plasma separated for LC/MS/MS analysis. The amount of CBD in the plasma samples was quantified. The amount of CBD-Val-HS in the plasma samples was not quantified.

[7] = rabbit eye, 90 min post topical, 250 μg CBD equivalent

Molecule: C=C(C)[C@@H]1CCC(C)=C[C@H]1c1c(O)cc(CCCCC)cc1O [CBD, Cannabidiol]
- Effect on morphine place preference, in words ([1]; morphine groups, IP, CBD 2.5-20.0 mg/kg, CBD-val-HS 10.0 mg/kg): dose-dependently decreased preference scores that approached significance at 10 mg/kg CBD; also recorded: showed a tendency to block the addictive effects of morphine
- Place preference or aversion of the substance itself, in words ([1]; saline groups, IP, CBD 2.5-20.0 mg/kg, CBD-val-HS 10.0 mg/kg): did not show neither place preference nor aversion
- concentration at 90 min ([2]; retina-choroid, Table 2, rabbit eye, 250 μg CBD equivalent, read-out: Concentration of CBD in Retina Choroid): 17.3 ± 6.5 ng/g
- Ocular tissue levels of the applied substance, in words (Example 13) ([2]; rabbit eye, 90 min post topical, 0.25 mg CBD): no levels in the tissues at all
- Ocular tissue levels, in words (Example 12) [2, 7]: very low levels in the retina choroid
- Concentration of CBD ([3]; Acid (pH 1.2), Time Point 0): 656 ng/mL
- Concentration of Δ^9-THC ([3]; Acid (pH 1.2), Time Point 0): 38 ng/mL
- Concentration of CBD ([3]; Acid (pH 1.2), Time Point 15): 553 ng/mL
- Concentration of Δ^9-THC ([3]; Acid (pH 1.2), Time Point 15): 238 ng/mL
- Concentration of CBD ([3]; Acid (pH 1.2), Time Point 30): 204 ng/mL
- Concentration of Δ^9-THC ([3]; Acid (pH 1.2), Time Point 30): 243 ng/mL
- Concentration of CBD ([3]; Acid (pH 1.2), Time Point 60): 111 ng/mL
- Concentration of Δ^9-THC ([3]; Acid (pH 1.2), Time Point 60): 496 ng/mL
- Concentration of CBD ([3]; Acid (pH 1.2), Time Point 90): 91 ng/mL
- Concentration of Δ^9-THC ([3]; Acid (pH 1.2), Time Point 90): 625 ng/mL
- Concentration of CBD ([3]; Acid (pH 1.2), Time Point 120): 46 ng/mL
- Concentration of Δ^9-THC ([3]; Acid (pH 1.2), Time Point 120): 454 ng/mL
- Concentration of CBD ([3]; Base (pH 7.4), Time Point 0): 760 ng/mL
- Concentration of CBD ([3]; Base (pH 7.4), Time Point 15): 943 ng/mL
- Concentration of CBD ([3]; Base (pH 7.4), Time Point 30): 1015 ng/mL
- Concentration of CBD ([3]; Base (pH 7.4), Time Point 60): 1119 ng/mL
- Concentration of CBD ([3]; Base (pH 7.4), Time Point 90): 1081 ng/mL
- Concentration of CBD ([3]; Base (pH 7.4), Time Point 120): 975 ng/mL
- Conversion to Δ^9-THC under acidic conditions, in words ([3]; acidic conditions): converts to Δ^9-THC
- Stability under acidic (gastric juice) conditions, in words [3]: partially converted to THC
- Stability under physiologic / intestinal juice conditions, in words [3]: stable
- Maximum solubility achieved in Tocrisolve [4]: 1.19 % w/v
- Effect on cisplatin-induced tactile allodynia (eVF paw withdrawal), in words ([5]; Example 23, 1.0 mg/kg CBD in combination with 0.1 mg/kg morphine, IP): did not further alter the anti-allodynic properties
- Effect on cisplatin-induced tactile allodynia (eVF paw withdrawal), in words ([5]; Example 23, 1.0 mg/kg IP alone, 45 minutes prior to testing): modest attenuation of CIN
- Effect on cisplatin-induced tactile allodynia (eVF paw withdrawal), in words ([5]; Example 23, 2.0 mg/kg CBD in combination with 0.1 mg/kg morphine, IP): attenuated tactile allodynia comparable to 2.5 mg/kg morphine
- Effect on cisplatin-induced tactile allodynia (eVF paw withdrawal), in words ([5]; Example 23, 2.0 mg/kg CBD in combination with 2.5 mg/kg morphine, IP): not further enhanced
- Effect on cisplatin-induced tactile allodynia (eVF paw withdrawal), in words ([5]; Example 23, 2.0 mg/kg IP alone, 45 minutes prior to testing): ineffective

Molecule: C=C(C)C1CCC(C)=CC1c1c(OC(=O)CCC(=O)O)cc(CCCCC)cc1OC(=O)CCC(=O)O (stereo not shown) [CBD-HS, CBD-Di-Hemisuccinate]
- Penetration into the ocular tissues, in words (Example 14) ([2]; rabbit eye): not adequate
- Maximum solubility achieved in Tocrisolve [4]: 1.12 % w/v
- Maximum solubility achieved in Tocrisolve (In terms of CBD) [4]: (0.7) % w/v

Molecule: C=C(C)C1CCC(C)=CC1c1c(OC(=O)[C@@H](NC(=O)CCC(=O)O)C(C)C)cc(CCCCC)cc1OC(=O)[C@@H](NC(=O)CCC(=O)O)C(C)C (stereo partly shown) [CBD-VAL-HS]
- concentration at 90 min ([2]; retina-choroid, Table 4, Set 2, rabbit, dose 250 μg, read-out: Analog Concentration, Retina Choroid): 142 ± 76 ng/g

Molecule: C=C(C)C1CCC(C)=CC1c1c(OC(=O)[C@@H](N)C(C)C)cc(CCCCC)cc1OC(=O)[C@@H](N)C(C)C (stereo partly shown) [CBD-Val-HCl]
- concentration at 90 min ([2]; retina-choroid, Table 2, rabbit eye, 250 μg CBD equivalent, read-out: Concentration of CBD-Val in Retina Choroid): 9.1 ± 1.5 ng/g
- Ocular tissue levels, in words (Example 12) [2, 7]: very low levels in the retina choroid
- Maximum solubility achieved in Tocrisolve [4]: 2.04 % w/v
- Maximum solubility achieved in Tocrisolve (In terms of CBD) [4]: (1.09) % w/v

Molecule: C=C(C)C1CCC(C)=CC1c1c(OC(=O)[C@@H](NC(=O)CCC(=O)O)C(C)C)cc(CCCCC)cc1OC(=O)[C@@H](NC(=O)CCC(=O)O)C(C)C (stereo partly shown) [CBD-Val-HS, CBD-Di-Valinate-Di-Hemisuccinate]
- Penetration into the ocular tissues, in words (Example 14) ([2]; rabbit eye): not adequate
- Stability under acidic (gastric juice) conditions, in words [3]: stable
- Stability under physiologic / intestinal juice conditions, in words [3]: stable
- Plasma levels of CBD, hydrophilic base compared with lipophilic base, in words [6]: Higher levels of CBD

Molecule: C=C(C)C1CCC(C)=CC1c1c(OC(=O)[C@@H](NC(=O)CCC(=O)O)C(C)C)cc(CCCCC)cc1OC(=O)[C@@H](NC(=O)CCC(=O)O)C(C)C (stereo partly shown) [CBD-Val-HS]
- concentration at 90 min ([2]; aqueous humor, Table 2, rabbit eye, 250 μg CBD equivalent, read-out: Concentration of CBD-Val-HS in Aqueous Humor): 24.6 ± 16.2 ng/g
- concentration at 90 min ([2]; retina-choroid, Table 2, rabbit eye, 250 μg CBD equivalent, read-out: Concentration of CBD-Val-HS in Retina Choroid): 417 ± 114 ng/g
- concentration at 90 min ([2]; vitreous humor, Table 2, rabbit eye, 250 μg CBD equivalent, read-out: Concentration of CBD-Val-HS in Vitreous Humor): 612 ± 264 ng/g

Molecule: C=C(C)C1CCC(C)=CC1c1c(OC(=O)[C@@H](N)C(C)C)cc(CCCCC)cc1OC(=O)[C@@H](N)C(C)C (stereo partly shown) [CBD-di-Val, CBD-Di-Valinate]
- Penetration into the ocular tissues, in words (Example 14) ([2]; rabbit eye): not adequate

Molecule: CN1CC[C@]23c4c5ccc(O)c4O[C@H]2[C@@H](O)C=C[C@H]3[C@H]1C5.O=S(=O)(O)O [morphine, Morphine sulfate]
- Conditioned place preference scores, in words ([1]; morphine treated vs control group (vehicle+saline)): higher preference scores compared to the control group
- Effect on cisplatin-induced tactile allodynia (eVF paw withdrawal), in words ([5]; Example 23, 0.1 mg/kg IP alone, 45 minutes prior to testing): did not affect eVF responses
- Effect on cisplatin-induced tactile allodynia (eVF paw withdrawal), in words ([5]; Example 23, 2.5 mg/kg IP alone, 45 minutes prior to testing): fully attenuated tactile allodynia
- Effect on cisplatin-induced tactile allodynia (eVF paw withdrawal), in words ([5]; Example 24, 0.1 mg/kg IP alone): did not affect eVF responses
- Effect on cisplatin-induced tactile allodynia (eVF paw withdrawal), in words ([5]; Example 24, 2.5 mg/kg IP alone): fully attenuated tactile allodynia

Molecule: CBD-Mono-Valinate [CBD-VAL-MONO]
- Maximum solubility achieved in Tocrisolve [4]: 1.41 % w/v
- Maximum solubility achieved in Tocrisolve (In terms of CBD) [4]: (1.07) % w/v
